Assay [1] concerns AZA-S SKM1 cells. The experiment in a line: Cathepsin B activity assay in AZA-S SKM1 cells. The note with it: Azacitidine. Format: cell-based, human. As for the experimental part:
(§1) For this experiment cells were incubated for increasing times with 1 μM AZA. Cell extracts were prepared and Cathepsin B activity determined in quadruplicatesusing Z-RR-AMC as substrates. […] In this experiment cells were incubated for 24 h with 1 μM Azacitidine or 1 mM ACA. Cell extracts were prepared and Cathepsin B activity was determined in quadruplicates using Z-RR-AMC as substrate. For these Cathepsin B assays, 10^6 cells/mL were incubated for different times at 37° C. with 1 μM Azacitine. After stimulation, cells were lysed for 30 min at 4° C. Cellular extracts were incubated in 96-well plates with […] (Cathepsin B) as substrate. This experiment was performed in quadruplicates and repeated at least three times.

Assay [2] relates to AZA-R SKM1 cells. The experiment in a line: Caspase 3 / caspase 9 activity assay in AZA-R SKM1 cells. Format: cell-based, human. As for the experimental part:
(§2) FIG. 1 illustrates AZA-induced apoptosis in AZA-SKM1 cells as assessed by caspase 3 assay. In this figure, cells were incubated for different times with 1 μM Azacitidine. Caspase activities were determined in quadruplicates using 0.2 mM Ac-DEVD-AMC as substrate.
(§3) FIG. 2 illustrates AZA-induced apoptosis in AZA-SKM1 cells as assessed by caspase 9 assay. In this figure, cells were incubated for different times with 1 μM Azacitidine. Caspase activities were determined in quadruplicates using 0.2 mM Ac-LEHD-AMC as substrate.
(§4) In this experiment, cells were incubated for 24 h with 1 μM Azacitidine or 1 mM ACA. Cell extracts were then prepared and caspase activities were determined in quadruplicates using 0.2 mM Ac-DEVD-AMC as substrate.
(§5) For these caspase assays, 10^6 cells/mL were incubated for different times at 37° C. with 1 μM Azacitidine. After stimulation, cells were lysed for 30 min at 4° C. Cellular extracts were incubated in 96-well plates with either Ac-DEVD-AMC (caspase 3) or Ac-LEHD-AMC (caspase 9) as substrates. Each experiment was performed in quadruplicates and repeated at least three times.

Assay [3] deals with AZA-S SKM1 cells. Nature of the assay: Autophagy western blot (LC3-I/LC3-II, P-S6) in AZA-S SKM1 cells. Particulars: 1 μM AZA. Format: cell-based, human. As for the experimental part:
(§6) FIG. 4 illustrates increased basal autophagy and decreased AZA-mediated autophagy in AZA-R cells. In this experiment, cells were incubated for increasing times with 1 μM AZA. LC3-I and LC3-II, S6 ribosomal protein (P-S6), and its phosphorylated form were visualized by western blot.
(§7) For the Western Blot analysis, cells were first stimulated by 1 μM Azacitidine for the indicated times, then cells were harvested and lysed in buffer containing 1% Triton X-100 and supplemented with protease and phosphatase inhibitors (Roche Diagnostics) as previously described. Lysates were pelleted, and 50 μg of protein were analyzed by SDS-PAGE.

Assay [4] relates to AZA-S SKM1 cells. Nature of the assay: Caspase 3 / caspase 9 activity assay in AZA-S SKM1 cells. Format: cell-based, human. How it is done: as §2, §3, §4, §5
The subject of assay [5] is high-risk Myelodysplasic syndrome (MDS) or acute myeloid leukemia (AML) patients. The note with it: cited from earlier work.
The subject of assay [6] is AZA-R SKM1 cells. The experiment in a line: Cathepsin B activity assay in AZA-R SKM1 cells. Format: cell-based, human. How it is done:
as §1

For assay [7], the system named is AZA-S SKM1 cells. Nature of the assay: XTT cell metabolism assay in AZA-S SKM1 cells. It is filed as cell-based, human. Particulars: for cell metabolism (XTT) / inhibitory effect on cell metabolism in presence of Z-VAD-fmk: 24 h; for inhibitory effect on cell metabolism in presence of Z-VAD-fmk: 50 μM Z-VAD-fmk. How it is done: (§8) FIGS. 6 and 7 illustrate respectively the efficiency of acadesine in SKM1-S and SKM1-R cells. In FIG. 6, AZA-S SKM1 cells were incubated for 24 h with increased doses of ACA (acadesine). In FIG. 7, AZA-R SKM1 cells were incubated for 24 h with increased doses of ACA. Cell metabolism was then assessed by using the XTT assay in both assays. Results represent the mean+/−SEM of three independent experiments made in quadruplicates.
FIGS. 10 and 11 illustrate the efficacy of acadesine in AZA-S and AZA-R cells. […] For this experiment, AZA-S SKM1 cells were incubated for 24 h with 1 μM Azacitidine or 1 mM Acadesine in either the presence or the absence of 50 μM Z-VAD-fmk. Cell metabolism was assessed using the XTT assay. Results represent the mean+/−SEM of three independent experiments achieved in quadruplicates. […] For this experiment, AZA-R SKM1 cells were incubated for 24 h with 1 μM Azacitidine or 1 mM Acadesine in either the presence or the absence of 50 μM Z-VAD-fmk. Cell metabolism was assessed using the XTT assay. Results represent the mean+/−SEM of three independent experiments achieved in quadruplicates.
For the cell metabolism assessment, 15×10^3 cells were incubated in a 96-well plate for different times with various concentrations of Azacitidine in a final volume of 100 μL. After 16, 24 or 48 h, 50 μL of XTT reagent was added to each well. The absorbance of the formazan product, reflecting cell metabolism, was measured at […]. Each assay was performed in quadruplicate.
The cell metabolism assessment was made in an identical manner as described in example 3.

In assay [8] the test system is AZA-R SKM1 cells. The experiment in a line: Autophagy western blot (LC3-I/LC3-II, P-S6) in AZA-R SKM1 cells. It is filed as cell-based, human. The note with it: 1 μM AZA. How it is done: as §6, §7
In assay [9] the test system is AZA-R SKM1 cells. Nature of the assay: PARP cleavage by western blot in AZA-R SKM1 cells. Particulars: 1 μM Azacitidine, 16 h. Format: cell-based, human. How it is done: In this experiment, PARP cleavage was assessed by western-blot on cell extracts prepared from AZA-S and AZA-R cells incubated for 16 h with 1 μM Azacitidine. For the Western Blot analysis, cells were first stimulated by 1 μM Azacitidine for the indicated times, then cells were harvested and lysed in buffer containing 1% Triton X-100 and supplemented with protease and phosphatase inhibitors (Roche Diagnostics) as previously described. Lysates were pelleted, and 50 μg of protein were analyzed by SDS-PAGE.

In assay [10] the test system is bone marrow cells of 7 AZA-sensitive patients. Nature of the assay: XTT cell metabolism assay on bone marrow cells of AZA-sensitive patients. It is filed as cell-based, human. The note with it: bone marrow cells of AZA-sensitive patients (n=7), 1 mM Acadesine. How it is done: For this experiment, bone marrow cells of 7 AZA-sensitive patients were treated with 1 μM Azacitidine or 1 mM Acadesine. Cell metabolism was assessed using the XTT assay. Results represent the mean+/−SEM of three independent experiments achieved in quadruplicates.
(§9) In the following examples, bone marrow samples were collected from 15 patients treated by Azacitidine. […] The diagnosis of MDS or AML was based on standard WHO criteria (Vardiman et al., Blood 2009). Patients were to receive Azacitidine at the FDA/EMEA approved schedule (75 mg/m^2/d, 7 d/4 weeks). Patients having received one or more than one cycle of Azacitidine and who had bone marrow evaluation after at least four cycles, or who died or progressed before completion of four cycles were considered evaluable (the last two groups were considered as treatment failures). Responses were scored according to IWG 2006 criteria for MDS and to Cheson et al. (JCO 2003) for AML.
(§10) Acadesine efficiency was next investigated on fifteen primary cell samples from MDS or AML patients treated or not by AZA. Samples from seven Azacitidine sensitive patients (FIG. 12) and eight samples from Azacitidine resistant patients were included in this experiment and analyzed by the XTT assay (FIG. 13). As previously described for AZA-R SKM1 cells, Acadesine was more efficient to kill cells from Azacitidine resistant patients.
On the technique in general: Formazan colour is commonly taken as a measure of viable cells.

For assay [11], the system named is AZA-R SKM1 cells. The experiment in a line: cells. It is filed as cell-based. The note with it: Homo sapiens. How it is done:
as §8
FIGS. 10 and 11 illustrate the efficacy of acadesine in AZA-S and AZA-R cells. […] For this experiment, AZA-S SKM1 cells were incubated for 24 h with 1 μM Azacitidine or 1 mM Acadesine in either the presence or the absence of 50 μM Z-VAD-fmk. Cell metabolism was assessed using the XTT assay. Results represent the mean+/−SEM of three independent experiments achieved in quadruplicates. […] For this experiment, AZA-R SKM1 cells were incubated for 24 h with 1 μM Azacitidine or 1 mM Acadesine in either the presence or the absence of 50 μM Z-VAD-fmk. Cell metabolism was assessed using the XTT assay. Results represent the mean+/−SEM of three independent experiments achieved in quadruplicates. […]
For the cell metabolism assessment, 15×10^3 cells were incubated in a 96-well plate for different times with various concentrations of Azacitidine in a final volume of 100 μL. […] The absorbance of the formazan product, reflecting cell metabolism, was measured at 490 nM. […]

Assay [12] deals with AZA-resistant patient bone marrow cells. Nature of the assay: LC3 I / LC3 II western blot on AZA-resistant patient bone marrow cells. The note with it: one Azacitidine resistant patient, 1 mM Acadesine, 24 h. It is filed as cell-based, human. As for the experimental part: In this experiment LC3 I and LC3 II expression was assessed by Western-Blot on cell extracts prepared from AZA-resistant patient bone marrow cells incubated for 24 h with 1 mM Acadesine.
as §10
A general note: A western blot detects proteins with antibodies after separation by electrophoresis.

Assay [13] deals with bone marrow cells of 8 AZA-resistant patients. Nature of the assay: XTT cell metabolism assay on bone marrow cells of AZA-resistant patients. Format: cell-based, human. Particulars: 1 mM Acadesine. As for the experimental part: For this experiment, bone marrow cells of 8 AZA-resistant patients were treated with 1 μM Azacitidine or 1 mM Acadesine. Cell metabolism was assessed using the XTT assay. Results represent the mean+/−SEM of three independent experiments achieved in quadruplicates.
as §9, §10

Molecules are shown by their SMILES.

Consider `Nc1ncn([C@@H]2O[C@H](CO)[C@@H](O)[C@H]2O)c(=O)n1` [Azacitidine], for which the “Cathepsin B activity” value in the assay on AZA-S SKM1 cells [1] is given as “induces”; in the assay with AZA-R SKM1 cells [6] (1 μM AZA, increasing times), “increased”. For the same molecule, the “caspase 3 activation (hydrolysis of Ac-DEVD-AMC)” value in the assay with AZA-R SKM1 cells [2] (1 μM Azacitidine) is listed as “no caspase activities was induced”; in the assay with AZA-S SKM1 cells [4] (1 μM Azacitidine, 8-16 h), “induced”. Moreover, the “caspase 9 activation (hydrolysis of LEHD-AMC)” value with AZA-R SKM1 cells [2] (1 μM Azacitidine) is “no caspase activities was induced”; in the assay with AZA-S SKM1 cells [4] (1 μM Azacitidine, 8-16 h), “induced”. In addition, the “caspase 3 activity (Ac-DEVD-AMC)” value in the assay on AZA-R SKM1 cells [2] (1 μM Azacitidine, 24 h) is “no increase”; in the assay on AZA-S SKM1 cells [4] (1 μM Azacitidine, 24 h), “induced caspase 3 activity”. The “ribosomal protein S6 phosphorylation (index of mTOR inhibition)” value in the assay on AZA-S SKM1 cells [3] and with AZA-R SKM1 cells [8] was “inhibition of ribosomal protein S6 phosphorylation” in each case. Further, the figures for the “LC3-II accumulation (autophagy)” value in the assay with AZA-S SKM1 cells [3] (increasing times) and in the assay on AZA-R SKM1 cells [8] (increasing times) were “time-dependent accumulation of LC3-II” and “not further stimulated”, respectively. For the same molecule, the “proportion of patients refractory” value in assay [5] is reported as “approximately 40%”. Besides, the “cell metabolism (XTT)” value in the assay on AZA-S SKM1 cells [7] (1 μM Azacitidine) is given as “efficiently reduced cell metabolism”. In addition, in the assay on AZA-S SKM1 cells [7] (1 μM Azacitidine), the “inhibitory effect on cell metabolism in presence of Z-VAD-fmk” value is “reverted by Z-VAD-fmk”. Moreover, the “cleavage of PARP (western blot)” value in the assay with AZA-R SKM1 cells [9] was “no AZA-mediated cleavage of PARP was detected”.

Consider `NC(=O)c1ncn([C@@H]2O[C@H](CO)[C@@H](O)[C@H]2O)c1N` [Acadesine, acadesine], for which the “apoptosis (caspase activity, Ac-DEVD-AMC)” value with AZA-R SKM1 cells [2] (1 mM ACA, 24 h) is listed as “does not induce apoptosis”; in the assay with AZA-S SKM1 cells [4] (1 mM ACA, 24 h), “does not induce apoptosis”. Further, the “cell metabolism (XTT)” value is “inhibits cell metabolism” in assay [10], “drastically inhibited cell metabolism” in the assay with AZA-S SKM1 cells [7] (1 mM Acadesine) and “strongly inhibits cell metabolism” in assay [13]. Further, the cytotoxicity at 1000 µM with AZA-R SKM1 cells [11] (SKM-1, 24 h, read-out: reduction of cell viability) was 60%. The IC50 came to 250 µM in the assay on AZA-R SKM1 cells [11] (SKM-1, AZA-R SKM1 cells, 24 h, XTT assay, read-out: half-maximal inhibition of cell metabolism) and 250 µM in the assay with AZA-S SKM1 cells [7] (Homo sapiens, SKM-1, 24 h, XTT assay, read-out: half-maximal inhibition of cell metabolism). The “Cathepsin B activity” value in the assay on AZA-R SKM1 cells [6] (1 mM ACA, 24 h) is on record as “increase of Cathepsin B activity”. Moreover, in assay [12], the “induction of autophagy (conversion of LC3-I into LC3-II)” value was “induction of autophagy by Acadesine was confirmed”. Besides, the “inhibitory effect on cell metabolism in presence of Z-VAD-fmk” value with AZA-S SKM1 cells [7] (1 mM Acadesine) is given as “independently of caspases”.

Values taken from patent publication US8895520B2, “Method for treating a human patent suffering from Myeloid Neoplasias using 5-aminoimidazole-4-carboxamide” (Universite Nice Sophia Antipolis, priority 2011, dated 2014).
